For 1 compound, IC50 results are on record in ChEMBL document CHEMBL5725458, “Histone deacetylase inhibitors and compositions and methods of use thereof” (2018).

The target in the assay is Histone deacetylase 4 (Homo sapiens, UniProt P56524). Description: HDAC4 Biochemical: The Class I HDAC activity of Class IIa Histone Deacetylase (HDAC) inhibitors was quantified by measuring the cellular histone deacetylase enzymatic activity using the fluorogenic substrate, Boc-Lys(Ac)-AMC. This was performed according to the procedure in Example 17, using Boc-Lys(Ac)-AMC substrate in place of Boc-Lys(TFA)-AMC.

pIC50: −log10 of the molar value.

Chain of Histone deacetylase 4 (P56524 whole entry): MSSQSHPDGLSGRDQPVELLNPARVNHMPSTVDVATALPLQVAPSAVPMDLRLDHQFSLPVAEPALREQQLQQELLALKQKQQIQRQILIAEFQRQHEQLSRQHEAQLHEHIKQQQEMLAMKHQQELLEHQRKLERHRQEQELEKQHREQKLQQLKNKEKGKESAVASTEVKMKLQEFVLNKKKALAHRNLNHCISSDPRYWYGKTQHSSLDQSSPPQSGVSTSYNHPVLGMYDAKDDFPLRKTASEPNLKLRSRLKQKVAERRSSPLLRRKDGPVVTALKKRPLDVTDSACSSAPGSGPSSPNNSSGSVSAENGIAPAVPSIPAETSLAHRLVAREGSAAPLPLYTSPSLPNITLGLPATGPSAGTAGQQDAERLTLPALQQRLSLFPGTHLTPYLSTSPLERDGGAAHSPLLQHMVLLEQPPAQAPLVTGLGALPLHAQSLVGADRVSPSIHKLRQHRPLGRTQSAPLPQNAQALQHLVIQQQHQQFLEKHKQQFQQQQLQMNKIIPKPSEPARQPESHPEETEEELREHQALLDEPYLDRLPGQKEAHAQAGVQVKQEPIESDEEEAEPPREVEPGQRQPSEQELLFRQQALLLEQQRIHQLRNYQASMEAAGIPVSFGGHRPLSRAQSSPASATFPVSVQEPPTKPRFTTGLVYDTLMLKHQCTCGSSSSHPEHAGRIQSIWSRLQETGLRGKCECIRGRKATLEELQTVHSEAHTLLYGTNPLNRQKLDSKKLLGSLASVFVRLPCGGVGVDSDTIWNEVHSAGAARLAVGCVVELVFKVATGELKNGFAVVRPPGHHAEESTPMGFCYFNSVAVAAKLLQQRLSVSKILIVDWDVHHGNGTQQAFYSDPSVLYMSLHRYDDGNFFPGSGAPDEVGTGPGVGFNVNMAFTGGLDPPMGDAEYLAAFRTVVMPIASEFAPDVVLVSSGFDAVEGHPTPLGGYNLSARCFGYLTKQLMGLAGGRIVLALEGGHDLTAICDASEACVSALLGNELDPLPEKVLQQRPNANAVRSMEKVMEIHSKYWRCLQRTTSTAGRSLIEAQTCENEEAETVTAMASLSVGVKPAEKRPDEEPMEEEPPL

The term pIC50 denotes the negative decadic logarithm of the IC50, by convention in mol/L. `O=C(NC1(CN2CC3CCC(C3)C2)CC1)c1ccc(-c2noc(C(F)(F)F)n2)cc1` gave a pIC50 of 6.48.
